According to paper PMC5790502, “The anti-rheumatic drug, leflunomide, synergizes with MEK inhibition to suppress melanoma growth” (Oncotarget, 2017):
Values belong to the compound of their own block, whether it stands above or below them.

Legend:
SKmel5 melanoma cells = assay: Cell viability assay (CellTiter-Glo); format: cell-based; conditions: Homo sapiens; for IC50: SK-MEL-5, 72 hours treatment
Procedure: (§1) Cells that had been seeded 24 hours earlier on poly-L-lysine coated 96-well plates (Sigma-Aldrich) to subconfluency, were treated with drugs at the indicated concentrations for 72 hours. Cytochalasin D (Sigma Aldrich) was used as a positive control. All conditions were repeated in triplicate. Cell viability was determined on day 5 using the CellTiter-Glo Luminescence assay (Promega), according to the manufacturer’s instructions. Luminescence from the plate was read on a BMG LabTech Omega Series plate reader (data analyzed using OMEGA software). Cell viability was calculated as a percentage of the mean vehicle control.
(§2) For pharmacological analysis, IC50 values were generated using Prism Graphpad software (Graphpad Software, Inc.) and calculated using a nonlinear regression model. Combinatorial drug synergy was assessed by determination of combination index (CI), which was calculated using CalcuSyn (Biosoft) software using the median effects methods as described by Chou and Talalay, CI values less than 0.7 indicated synergy, 0.7–0.9 weak synergy, 0.9–1.1 additivity, 1.1–1.45 indicated weak antagonism and greater than 1.45 antagonism.

[1] = tested on: Human embryonic kidney cells (HEK-293); assay: Cell viability assay (CellTiter-Glo); format: cell-based; conditions: HEK293, 72 hours treatment
Procedure: as §1, §2

M229 melanoma cells = assay: Cell viability assay (CellTiter-Glo); format: cell-based; conditions: Homo sapiens, 72 hours treatment
Procedure: as §1, §2

[2] = tested on: rhabdomyosarcoma cells (RD-1); assay: Cell viability assay (CellTiter-Glo); format: cell-based; conditions: Homo sapiens; for IC50: RD1, 72 hours treatment
Procedure: as §1, §2

M285 melanoma cells = assay: Cell viability assay (CellTiter-Glo); format: cell-based; conditions: Homo sapiens, 72 hours treatment
Procedure: as §1, §2

M202 melanoma cells = assay: Cell viability assay (CellTiter-Glo); format: cell-based; conditions: Homo sapiens, 72 hours treatment
Procedure: as §1, §2

A375 melanoma cells [3] = assay: Cell viability assay (CellTiter-Glo); format: cell-based; conditions: Homo sapiens, A-375, 72 hours treatment
Procedure: as §1, §2

M296 melanoma cells = assay: Cell viability assay (CellTiter-Glo); format: cell-based; conditions: Homo sapiens, 72 hours treatment
Procedure: as §1, §2

M375 melanoma cells = assay: Cell viability assay (CellTiter-Glo); format: cell-based; conditions: Homo sapiens
Procedure: as §1, §2

SKmel28 melanoma cells = assay: Cell viability assay (CellTiter-Glo); format: cell-based; conditions: Homo sapiens, SK-MEL-28, 72 hours treatment
Procedure: as §1, §2

[4] = tested on: Primary human melanocytes adult (HEMa-LP); assay: Cell viability assay (CellTiter-Glo); format: cell-based; conditions: Melanocyte, 72 hours treatment
Procedure: as §1, §2

M375 melanoma tumors = assay: Mouse xenograft study; format: in vivo; conditions: M375 xenograft in SCID mice, selumetinib 30 mg/kg OG; for tumor volume: 12 days, leflunomide 7.5 mg/kg IP daily, vs vehicle control
Procedure: 8–10-week-old female severe immunodeficiency (SCID) mice were purchased from Charles River Laboratories. All procedures were performed under UK Home Office approved protocols and the University of East Anglia local guidelines. Experiments were conducted strictly in accordance with the locally approved animal handling protocol.
A total of 3 × 10^6 M375 melanoma cells were injected subcutaneously into 40 SCID mice. After approximately 4 weeks when the tumors were palpable, the mice were randomized into 4 arms. The 4 arms were; vehicle alone, leflunomide alone, selumetinib alone and leflunomide and selumetinib in combination. There were 10 mice in each arm. The drug regime was administered for 12 days. Leflunomide was administered by intraperitoneal (IP) injection daily at 7.5 mg/kg. Selumetinib was administered by oral gavage (OG) twice daily at 30 mg/kg for the first two days and was then delivered once daily thereafter. The tumor volume was measured every three days with calipers. Tumor volume was measured by the formula 0.52 (length × width^2). At the end of the experiment, the mice were culled and the excised tumors were weighed.

A375 melanoma cells [5] = assay: Cell cycle analysis (PI staining, flow cytometry); format: cell-based, human; conditions: 72 hours
Procedure: Cell cycle analysis was carried out as previously detailed. In brief, A375 melanoma cells were seeded in 24-well plates at a density of 4,600 cells per well. After 24 hours, the cells were treated with vehicle, 25, 50 and 100 µM of Leflunomide. After 72 hours, the cells were trypsinised and pelleted along with the culture medium. Cells were washed in PBS and fixed in ice-cold absolute ethanol. Cells were then stained with 200 µl PI/RNase A solution (Cell Signalling Technology). Cells were analyzed using a BD Accuri™ C6 flow cytometer (BD Biosciences) and the data was analyzed using the BD Accuri™ C6 Software and FlowJo (FLOWJO, LLC).

A375 melanoma cells [6] = assay: BrdU proliferation assay; format: cell-based, human; conditions: increasing concentrations of leflunomide, 72 hours
Procedure: A375 melanoma cells were seeded in 12-well plates at a density of 10,000 cells and grown on gelatin-coated coverslips. After 24 hours leflunomide was added to cells at 12.5, 25 or 50 μM (or a vehicle control) for 72 hours. Cells were pulsed for 2 hours with BrdU (Sigma-Aldrich) at a final working concentration of 10 μM. Cells were permeabilised in 2N-HCL + 0.5% Triton X-100. Primary BrdU antibody diluted 1:100 in 1% goat serum was applied and incubated overnight at 4°C followed by Alexa Fluor-488 anti-mouse secondary antibody Cells were counterstained with DAPI. Cells were mounted onto slides using hydromount and examined under a Zeiss AxioPlan 2ie widefield microscope with an AxioCam HRm CCD camera. Images were analyzed using Image J software.

A375 melanoma cells [7] = assay: Mitotracker green staining (mitochondrial mass); format: cell-based, human
Procedure: (§3) www.impactjournals.com/oncotarget/ Oncotarget, Supplementary Materials 2017 The anti-rheumatic drug, leflunomide, synergizes with MEK inhibition to suppress melanoma growth
(§4) Mitochondrial membrane potential [ΔΨM] assay REFERENCES
(§5) A375 melanoma cells were seeded in 12 well plates at 1. Tap WD, Gong KW, Dering J, Tseng Y, Ginther C, Pauletti a density of 10,000 cells per 1 ml of medium per well. After G, Glaspy JA, Essner R, Bollag G, Hirth P, Zhang C, Slamon 24 hours, the cells were treated with vehicle or leflunomide. DJ. […] Haluska FG, Tsao H, Wu H, Haluska FS, Lazar A, Goel V. of fresh PBS before being analyzed on the BD AccuriTM C6 Genetic alterations in signaling pathways in melanoma. […] Samples were exposed to 488 nm excitation, Cancer Res. 2006; 12:2301s–2307s. with JC-1 green monomer fluorescence detected at 533/30 3. von Euw E, Atefi M, Attar N, Chu C, Zachariah S, Burgess BL, nm in the FL1 channel and JC-1 red aggregates fluorescence Mok S, Ng C, Wong DJ, Chmielowski B, Lichter DI, Koya RC, detected at 585/20 nm in the FL2 channel. […] Data selective MEK inhibitor TAK733 against cutaneous and uveal was analyzed using the BD AccuriTM C6 Software. melanoma cell lines. […]
(§6) BD AccuriTM C6 flow cytometer (with green fluorescence 6. Atefi M, Titz B, Tsoi J, Avramis E, Le A, Ng C, Lomova A, Lassen detected in the FL1 channel). […]

A375 melanoma cells [8] = assay: Annexin V apoptosis assay; format: cell-based, human; conditions: 72 hours
Procedure: Apoptosis was assessed using an Annexin V-FITC Apoptosis detection kit FITC (eBioscience), according to the manufacturer’s instructions. Briefly, cells were seeded in 24-well plates at a density of 4,600 cells per well. After 24 hours, the cells were treated with vehicle or leflunomide (at concentrations of 25, 50 and 100 µM). After 72 hours cells were trypsinised, washed in PBS and treated with fluorochrome-conjugated Annexin V and propidium iodide as indicated in the protocol. Cells were analyzed on the BD Accuri™ C6 flow cytometer and the data analyzed using the instrument software.

A375 melanoma cells [9] = assay: Mitochondrial membrane potential assay (JC-1); format: cell-based, human; conditions: rising concentrations of leflunomide (25, 50, 100 μM), 72 hours
Procedure: as §3, §4, §5, §6

phospho-ERK = assay: Western blot of phospho-ERK; format: cell-based, human; conditions: A375 and M202 cells; 0.1 or 1 µM selumetinib
Procedure: A375 melanoma cells were seeded and treated for 72 hours in varying drug conditions. Total protein extracts were then made using high SDS content lysis buffer (60 mM sucrose, 65 mM Tris-HCl, pH 6.8. 3% SDS). Protein concentration was determined using the DC protein assay (BIORAD). 10 μg of whole-cell protein lysate was loaded onto a 10% SDS-PAGE gel and transferred onto polyvinylidene difluoride membranes (Bio-Rad). A standard Western blot protocol was used for detection of the specific proteins as previously described.
Antibodies used included; Rabbit polyclonal phospho-ERK (1:1000, Cell Signalling Technology); Rabbit polyclonal phospho-p44/42 MAPK (1:1000, ERK1/2; Cell Signalling Technology); Mouse monoclonal HSC-70 (1:1000, Santa-Cruz Biotechnology); Rabbit polyclonal Mcl-1 (1:500, Santa-Cruz Biotechnology); Rabbit polyclonal anti-BIM (1:500, Merck-Millipore); Rabbit polyclonal PARP (1:1000, Cell Signalling Technology); Rabbit polyclonal PUMA (1:1000, Cell Signalling Technology); anti-rabbit IgG HRP linked secondary antibody (1:2000, Jackson ImmunoResearch); Anti-mouse IgG HRP linked secondary antibody (1:2000, Jackson ImmunoResearch); All anti-rabbit IgG HRP linked secondary antibody (1:2000, Cell Signalling Technology).

Compound: Cc1oncc1C(=O)Nc1ccc(C(F)(F)F)cc1 [Leflunomide, leflunomide]
- IC50 (SKmel5 melanoma cells): 122 µM
- IC50 [1]: 48.1 µM
- IC50 (M229 melanoma cells): 58.2 µM
- IC50 [2]: 84.2 µM
- IC50 (M285 melanoma cells): 61.5 µM
- IC50 (M202 melanoma cells): 68.1 µM
- IC50 (A375 melanoma cells [3]): 57.4 µM
- IC50 (M296 melanoma cells): 112 µM
- IC50 (M375 melanoma cells; M375, 72 hours treatment): 64.1 µM
- IC50 (SKmel28 melanoma cells): 167 µM
- IC50 [4]: 148 µM
- tumor volume (M375 melanoma tumors): did not reduce tumor volume
- tumor weight (M375 melanoma tumors; excised at end of 12-day treatment, leflunomide 7.5 mg/kg IP): did not reduce the tumor volume or weight
- cells in G1 (G0-G1 phase) (A375 melanoma cells [5]; 25 μM leflunomide): 46.56%
- cells in sub-G1 (A375 melanoma cells [5]; 25 μM leflunomide): 5.36%
- reduction of percentage of cells in G2-M compared to the DMSO control (A375 melanoma cells [5]; 25 μM leflunomide): 50%
- cells in G1 (G0-G1 phase) (A375 melanoma cells [5]; 50 μM leflunomide): 55.05%
- cells in S-phase (A375 melanoma cells [5]; 50 μM leflunomide): 30.41%
- cells in sub-G1 (A375 melanoma cells [5]; 50 μM leflunomide): 9.12%
- cells in G1 (G0-G1 phase) (A375 melanoma cells [5]; 100 μM leflunomide): 73.56%
- cells in S-phase (A375 melanoma cells [5]; 100 μM leflunomide): 11.60%
- cells in sub-G1 (A375 melanoma cells [5]; 100 μM leflunomide): 11.84%
- number of BrdU positive (proliferating) cells (A375 melanoma cells [6]): dose-dependent decrease
- increase in the time to reach 5000 events by flow cytometry (sample cell density) (A375 melanoma cells [7]; 100 μM leflunomide relative to the 25 μM and 50 μM treated samples): 3 fold
- increase in the amount of green fluorescence (Mitotracker green) compared to the DMSO control (A375 melanoma cells [7]; 100 μM leflunomide, 72 hours): 3 fold
- early apoptotic cells (quadrant Q3) (A375 melanoma cells [8]; 50 μM leflunomide): 49.3%
- late apoptotic/necrotic cells (quadrant Q2) (A375 melanoma cells [8]; 50 μM leflunomide): 44.2%
- early apoptotic cells (quadrant Q3) (A375 melanoma cells [8]; 100 μM leflunomide): 28.5%
- late apoptotic/necrotic cells (quadrant Q2) (A375 melanoma cells [8]; 100 μM leflunomide): 19.1%
- viability at 25 µM (A375 melanoma cells [8]; Homo sapiens, A-375, 25μM leflunomide, read-out: viable cells (quadrant Q4)): 68%
- viability at 50 µM (A375 melanoma cells [8]; Homo sapiens, A-375, 50μM leflunomide, read-out: viable cells (quadrant Q4)): 5.91%
- viability at 100 µM (A375 melanoma cells [8]; Homo sapiens, A-375, 100μM leflunomide, read-out: viable cells (quadrant Q4)): 51.4%
- mitochondrial membrane potential (JC-1, FL-1 channel) (A375 melanoma cells [9]): depolarized

Compound: Cn1cnc2c(F)c(Nc3ccc(Br)cc3Cl)c(C(=O)NOCCO)cc21 [Selumetinib, selumetinib]
- viability at 1 µM (SKmel5 melanoma cells; SK-MEL-5, 1 μM selumetinib, read-out: cell viability (relative to vehicle control)): 51.8%
- IC50 (SKmel5 melanoma cells): 1.01 µM
- IC50 (M229 melanoma cells): 0.2 µM
- viability at 1 µM ([2]; RD1, 1 μM selumetinib, read-out: cell viability (relative to vehicle control)): 55%
- IC50 [2]: 1.05 µM
- IC50 (M285 melanoma cells): 0.5 µM
- IC50 (M202 melanoma cells): 0.5 µM
- IC50 (A375 melanoma cells [3]): 0.19 µM
- IC50 (M296 melanoma cells): 0.47 µM
- IC50 (M375 melanoma cells; M375, 72 hours treatment): 0.1 µM
- IC50 (M375 melanoma cells; M375 melanoma cell line, Meki alone, combinatorial viability study (Figure 4A(i))): 0.064 µM
- IC50 (SKmel28 melanoma cells): 0.43 µM
- tumor volume (M375 melanoma tumors): significantly reduced the average tumor volume
- amount of pERK protein (phospho-ERK): decreases in a dose-dependent manner

- IC50 (SKmel5 melanoma cells): 0.15 µM
- IC50 (M229 melanoma cells): 0.3 µM
- IC50 (M202 melanoma cells): 1.7 µM
- IC50 (A375 melanoma cells [3]): 0.7 µM
- IC50 (M296 melanoma cells): 2 µM
- IC50 (SKmel28 melanoma cells): 0.8 µM
Compound: CCCS(=O)(=O)Nc1ccc(F)c(C(=O)c2c[nH]c3ncc(-c4ccc(Cl)cc4)cc23)c1F [Vemurafenib, vemurafenib]
